Values quoted from earlier work, collected in patent US20040116411A1, “Combination HIV therapy including camptothecin” (priority 2000, published 2004).

Experiments:
[1] = test system: viral-associated topoisomerase I; details: HIV infection of human H9 cells, in vitro
[2] = test system: rous sarcoma virus (RSV) promoter
HIV-1 LTR = details: human CD4+ lymphocytic cell line RPMI 8402
[3] = test system: Moloney murine leukemia virus (MMLV)
[4] = test system: human CD4+ lymphocytic cell line RPMI 8402; details: at the concentration used
[5] = test system: equine infectious anemia virus (EIAA); details: chronically infected cells
HIV = details: by disrupting gp41 conformational changes associated with membrane fusion

CC[C@@]1(O)C(=O)OCc2c1cc1n(c2=O)Cc2cc3ccccc3nc2-1 [camptothecin, 20(S)-camptothecin]
activity of the viral-associated topoisomerase I [1]: significantly reduced
promoter activity of rous sarcoma virus (RSV) [2]: did not inhibit
expression of downstream reporter gene under the control of HIV-1 LTR (HIV-1 LTR): inhibitory effects
MMLV replication [3]: inhibits
cell survival [4]: not significantly affected
EIAA replication [5]: inhibits
expression of gro, a cellular gene (gro): did not inhibit

CC[C@@]1(O)C(=O)OCc2c1cc1n(c2=O)Cc2cc3c(CN(C)C)c(O)ccc3nc2-1 [Topotecan]
antiviral effects (HIV-1; CPT-K5 cell line, PBMC acutely infected with clinical isolates, OM10.1 cells latently infected, activated by TNF-α): antiviral effects of topotecan were observed
acute and chronic HIV-1 infections (HIV-1; in vitro): inhibit

enfuvirtide
infection in vitro (HIV): inhibit infection in vitro
